Where two headings read alike, the source gives them in different places.
What was measured:
HIV-1 = HIV-1 infection model, read-out: HIV-1 EC50 ± stdev, cited from earlier work
recombinant HTLV-1 IN = target: T1, recombinant HTLV-1 IN (Human T-cell leukemia virus 1, UniProt P03362); test: In vitro integration strand transfer assay with HTLV-1 IN; type: biochemical; conditions: for HTLV-1 IN strand transfer activity (No drug = 100): INSTI at 634 nM
T1 construct: made in house
Method: We used in vitro strand transfer assays to screen this small molecule library for its ability to inhibit recombinant HTLV-1 IN. The enzyme was incubated with an oligonucleotide vDNA donor mimic in the presence or absence of INSTIs and was allowed to react with a supercoiled plasmid mimicking target DNA. During the screening, the concentration of each compound was adjusted to 634 nM to provide optimal resolution of efficacy between well- and under-performing compounds.
The donor vDNA that mimics the 3′-processed LTR of HTLV-1 or STLV-1 DNA was preassembled by annealing the U5_S20Q_UP and U5_S20Q_B or MarB43_U5_S30UP or MarB43_U5_S30B oligonucleotides, respectively (Supplementary Table 4) in 100 mM Tris pH 7.4, 400 mM NaCl. For HTLV-1 IN, strand transfer reactions were conducted in a solution of 24.3 mM PIPES pH 6.0, 138.4 mM NaCl, 16.6 mM MgCl2, 5.8 μM ZnCl2, 12.7 mM DTT, 0.53 μM donor DNA and 4 μg of HTLV-1 IN[9],[39]. In brief, the reaction was incubated at RT for 15 min in the presence of an INSTI or dimethyl sulfoxide (DMSO) control and the reaction was started by the addition of 300 ng of pGEM-9Zf(-) supercoiled plasmid DNA. The reaction was incubated for 1 h at 37 °C and stopped by adding 0.5% SDS and 25 mM ethylenediaminetetraacetic acid (EDTA), pH 8.0.
Proteins were degraded by incubation with 30 μg of proteinase K (Roche) at 37 °C for 1 h. DNA was precipitated at −20 °C overnight in the presence of ethanol supplemented with 20 μg of glycogen and then resuspended in 1.5× agarose loading dye. The DNA products were separated by electrophoresis through 1.5% agarose gel and stained with ethidium bromide and imaged using the BioRad GelDox XR + imager. The data were analysed and the IC50 calculated as previously described. In brief, the DNA band that corresponds to the concerted integration product was quantified by densitometry in ImageLab 4.1 (Bio-Rad). All experiments were done in triplicate. Quantified data points were fitted to dose–response curves in Prism 9. The cumulative standard deviation for each drug was calculated as an average of the upper limit and lower limit values: Lowerlimit=IC50/10^logSE(IC50) Upperlimit=IC50×10^logSE(IC50)

HTLV-1 = test: Alu-qPCR of integrated provirus in HTLV-1 infected Jurkat cells; type: cell-based; conditions: normalized to GAPDH
Method: The HTLV-1 cell-to-cell infection was performed as previously described; Jurkat T cells were counted and diluted in complete RPMI to a final concentration of 0.25 × 10^6 cells/ml and pre-treated with INSTI drugs (final concentration ranging from 0.2 pM to 2 μM) or DMSO as a control for 24 h. MT-2 cells were resuspended in RPMI at a concentration of 2 × 10^6 cells/ml and subjected to a nonlethal γ-radiation dose of 400 Gy. Cells were resuspended at a concentration of 2 × 10^6 cells/ml in serum-free RPMI supplemented with the corresponding INSTI drug. Co-culture of 0.5 × 10^6 for each cell line was carried out for 16 h, after which cells were washed in PBS and resuspended in 1 ml of depletion buffer (PBS, 0.1% FBS and 2 mM EGTA). MT-2 cells were depleted from the culture by means of anti-CD25 magnetic beads (DynabeadsTM CD25, Thermo Fisher). Depletion efficiency was confirmed via flow cytometry as described previously. Jurkat cells were cultured for 2 weeks in complete RPMI supplemented with the drugs and genomic DNA was extracted (DNeasy kit, Qiagen) and stored at −20 °C for subsequent analysis. All the experiments were done in triplicate.
The PVL was measured as previously described[9],[53],[54]. Jurkat genomic DNA was quantified and diluted to a concentration of 5 ng/μL. Real-time qPCR analysis were conducted on 20 ng of gDNA to measure the level of HTLV-1 tax and gapdh genes (Supplementary Table 5). For the standard curve, the gDNA from an HTLV-1 naturally infected T-cell clone (clone 11.50, courtesy of professor Charles Bangham), which has one copy of tax and two of gapdh, was used. The integrated provirus copy number was calculated as follows: (tax copy numbers)/(2×gapdh copy number)[53], and normalised to the DMSO-treated control which was set to 100%. The PVL data were fitted to a dose–response curve in Prism 7 and the EC50 was calculated. Alu-PCR was performed as previously described in ref. [55]. In brief, the first PCR reaction was done with Phusion polymerase starting from 80 ng of gDNA using the ALU-specific primers (Alu-F/Gag-R). The nested PCR was run diluting the amplificated product 1:50. The reaction was done as a qPCR using Gag-specific primers (Gag-R/Gag-F) and the Luna SYBR dye reaction mix (New England Biolabs). The integrated provirus copy numbers were normalised to GAPDH and Jurkat cells treated with DMSO and infected with HTLV-1 were set to 100%. Experiments were done in triplicate. […]
Supplementary Figure 6 | Integrated provirus was quantified by Alu-qPCR.
Values were normalized to GAPDH. Uninfected represents uninfected Jurkat cells, acting as negative control. Condition without any drug present (DMSO) was set as 100%. Mean values and standard deviations are shown for n = three biologically independent experiments. P-values were calculated with respect to the DMSO control using the unpaired t-test with Welch’s correction in Prism 9. P-values are two-sided.

[1] = Replicate 1, read-out: HTLV-1 IN strand transfer IC50
[2] = Replicate 2, read-out: HTLV-1 IN strand transfer IC50
[3] = Replicate 3, read-out: HTLV-1 IN strand transfer IC50
[4] = integrase strand-transfer drug titration, n = 3, read-out: HTLV-1 IC50 ± stdev

T1 sequence (P03362 1168-1462): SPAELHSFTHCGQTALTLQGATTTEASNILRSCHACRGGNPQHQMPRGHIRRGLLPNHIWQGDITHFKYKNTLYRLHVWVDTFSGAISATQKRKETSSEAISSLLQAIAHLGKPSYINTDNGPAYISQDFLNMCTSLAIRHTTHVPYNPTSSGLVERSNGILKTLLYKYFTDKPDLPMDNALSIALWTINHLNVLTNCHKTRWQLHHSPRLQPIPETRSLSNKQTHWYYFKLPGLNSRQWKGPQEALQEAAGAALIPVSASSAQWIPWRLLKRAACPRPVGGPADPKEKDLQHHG

Row | Compound | EC50 (HIV-1; supplementary ref 14) [µM] | HTLV-1 IN strand transfer activity (No drug = 100) (recombinant HTLV-1 IN; Replicate 1) [%] | HTLV-1 IN strand transfer activity (No drug = 100) (recombinant HTLV-1 IN; Replicate 2) [%] | HTLV-1 IN strand transfer activity (No drug = 100) (recombinant HTLV-1 IN; Replicate 3) [%] | IC50 (recombinant HTLV-1 IN; [1]) [µM] | IC50 (recombinant HTLV-1 IN; [2]) [µM] | IC50 (recombinant HTLV-1 IN; [3]) [µM] | IC50 (recombinant HTLV-1 IN; [4]) [µM] | Integrated provirus by Alu-qPCR (DMSO = 100%) (HTLV-1; Replicate 1) [%] | Integrated provirus by Alu-qPCR (DMSO = 100%) (HTLV-1; Replicate 2) [%] | Integrated provirus by Alu-qPCR (DMSO = 100%) (HTLV-1; Replicate 3) [%] | EC50 (HIV-1; supplementary ref 1) [µM]
1 | COC(=O)CCc1cnc2c(c1)c(N)c(C(=O)NCc1ccc(F)cc1F)c(=O)n2O [XZ434, methyl 3-(5-amino-6-((2,4-difluorobenzyl)carbamoyl)-8-hydroxy-7-oxo-7,8-dihydro-1,8-naphthyridin-3-yl)propanoate] | 0.00067 ± 0.00015 | 20.5794 | 19.7322 | 15.311 | 0.174 | 0.217 | 0.231 | 0.204 ± 0.0341 | 0.3355 | 0.8375 | 1.324e-5 | 
2 | Nc1c(C(=O)NCc2ccc(F)cc2F)c(=O)n(O)c2ncccc12 [XZ384, 4-amino-N-(2,4-difluorobenzyl)-1-hydroxy-2-oxo-1,2-dihydro-1,8-naphthyridine-3-carboxamide] |  | 12.8154 | 24.1903 | 23.5902 | 0.142 | 0.268 | 0.121 | 0.21 ± 0.034 | 4.1902 | 0.144 | 1.628 | 0.0011 ± 0.0007
